Experimental findings from ChEMBL document CHEMBL4680205, “Multifunctional 6-fluoro-3-[3-(pyrrolidin-1-yl)propyl]-1,2-benzoxazoles targeting behavioral and psychological symptoms of dementia (BPSD)” (Eur J Med Chem, 2020) are described below.

Series [1] deals with T1, 5-hydroxytryptamine receptor 7 (Homo sapiens, UniProt P34969). The series is classed as cell membranes, CHO-K1, Membrane.
Series [2] concerns the target 5-hydroxytryptamine receptor 2A (Homo sapiens, UniProt P28223). The series is classed as cell membranes, CHO-K1, Membrane.
For series [3] the following is noted: mouse, in vivo, ip, 0.5 h.
In series [4] the target is D(2) dopamine receptor (Homo sapiens) (UniProt P14416). The note with it: CHO-K1, filed as antagonist, time 15-31 min.
Sequence of D(2) dopamine receptor (Homo sapiens) (P14416 whole entry): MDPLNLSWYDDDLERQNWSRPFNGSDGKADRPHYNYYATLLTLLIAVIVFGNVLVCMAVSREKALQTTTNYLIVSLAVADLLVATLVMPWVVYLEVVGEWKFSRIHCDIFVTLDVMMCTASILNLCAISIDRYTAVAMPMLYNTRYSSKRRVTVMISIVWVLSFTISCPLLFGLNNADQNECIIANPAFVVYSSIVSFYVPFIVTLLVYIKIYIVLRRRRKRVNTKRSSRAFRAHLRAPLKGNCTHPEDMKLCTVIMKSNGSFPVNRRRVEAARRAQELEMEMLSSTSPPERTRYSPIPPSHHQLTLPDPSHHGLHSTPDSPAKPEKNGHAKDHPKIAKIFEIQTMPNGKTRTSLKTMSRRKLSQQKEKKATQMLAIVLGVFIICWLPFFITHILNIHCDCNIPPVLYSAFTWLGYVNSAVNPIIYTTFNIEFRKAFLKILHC
The target of series [5] is T1, 5-hydroxytryptamine receptor 7. The note with it: CHO-K1, filed as antagonist, time 1.0 hrs.
In series [6] the target is T2, Alpha-2C adrenergic receptor (Homo sapiens, UniProt P18825).
T2 sequence (P18825 whole entry): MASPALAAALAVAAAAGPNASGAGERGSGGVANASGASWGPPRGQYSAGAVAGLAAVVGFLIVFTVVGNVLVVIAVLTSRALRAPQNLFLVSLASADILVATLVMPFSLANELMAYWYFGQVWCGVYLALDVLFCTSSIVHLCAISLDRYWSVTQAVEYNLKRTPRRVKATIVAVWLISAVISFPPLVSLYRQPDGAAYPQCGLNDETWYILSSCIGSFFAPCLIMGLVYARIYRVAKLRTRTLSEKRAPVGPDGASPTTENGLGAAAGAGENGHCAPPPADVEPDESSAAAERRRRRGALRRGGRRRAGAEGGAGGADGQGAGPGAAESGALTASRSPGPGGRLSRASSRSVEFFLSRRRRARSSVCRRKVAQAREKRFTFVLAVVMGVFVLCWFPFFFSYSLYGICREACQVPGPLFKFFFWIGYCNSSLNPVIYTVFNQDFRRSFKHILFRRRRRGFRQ
In words: Antagonist activity at recombinant human adrenergic receptor alpha2c expressed in CHO-K1 cells assessed inhibition of epinephrine-induced cAMP accumulation measured after 10 mins by HTRF assay. The format is cell-based. The note with it: cho-k1, 10 min.

Series [7] is filed under the species Mus musculus. In words: animal or person. Particulars: CD-1, ip, 2 h, read-out: MED.
The species entered for series [8] is Mus musculus. As to the kind of experiment: animal or person. The note with it: Swiss, ip, 0.1 h, read-out: MED.
A short description of series [9]: Psychoactive effect in ip dosed CD-1 mouse assessed as catalepsy effect measured after 30 to 120 mins by bar test. The format is ADME, organism-based. The note with it: in vivo, time 30-120 min.
For series [10], the species on record is Mus musculus. As to the kind of experiment: animal or person. The note with it: CD-1, ip, 2 h, read-out: MED. The source holds these as a separate data set.
The nature of series [11]: Sedative activity in ip dosed CD-1 mouse assessed as effect spontaneous locomotor activity measured at 5 mins interval for 120 mins. Particulars: in vivo, 2 h. The format is ADME, organism-based.
A short description of series [12]: Sedative activity in ip dosed Swiss albino mouse assessed as effect spontaneous locomotor activity measured during 2 to 6 mins of test. The series is classed as ADME, organism-based. The note with it: in vivo, time 2-6 min.
The target in series [13] is T3, 5-hydroxytryptamine receptor 2C (Homo sapiens, UniProt P28335).
T3 sequence (P28335 whole entry): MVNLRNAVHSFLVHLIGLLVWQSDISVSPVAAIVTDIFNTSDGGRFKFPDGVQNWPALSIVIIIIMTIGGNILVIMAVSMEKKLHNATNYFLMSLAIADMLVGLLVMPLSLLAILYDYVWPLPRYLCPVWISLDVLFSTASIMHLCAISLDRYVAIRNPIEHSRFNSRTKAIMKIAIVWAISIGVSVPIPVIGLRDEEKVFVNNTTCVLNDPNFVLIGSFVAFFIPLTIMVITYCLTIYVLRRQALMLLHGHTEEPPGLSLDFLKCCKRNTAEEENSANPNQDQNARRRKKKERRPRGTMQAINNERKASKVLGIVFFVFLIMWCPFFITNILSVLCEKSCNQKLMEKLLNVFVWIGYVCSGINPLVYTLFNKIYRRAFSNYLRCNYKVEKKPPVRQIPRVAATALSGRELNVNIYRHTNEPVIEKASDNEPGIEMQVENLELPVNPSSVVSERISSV
As to the kind of experiment: Antagonist activity at recombinant human 5HT2C receptor expressed in HEK293 cells assessed as inhibition of serotonin-induced inositol phosphate accumulation measured after 30 mins by HTRF assay. The format is cell-based. Particulars: hek293, 0.5 h. Background: TR-FRET usually uses a lanthanide donor and a delayed reading to cut background.

T1 sequence (P34969 whole entry): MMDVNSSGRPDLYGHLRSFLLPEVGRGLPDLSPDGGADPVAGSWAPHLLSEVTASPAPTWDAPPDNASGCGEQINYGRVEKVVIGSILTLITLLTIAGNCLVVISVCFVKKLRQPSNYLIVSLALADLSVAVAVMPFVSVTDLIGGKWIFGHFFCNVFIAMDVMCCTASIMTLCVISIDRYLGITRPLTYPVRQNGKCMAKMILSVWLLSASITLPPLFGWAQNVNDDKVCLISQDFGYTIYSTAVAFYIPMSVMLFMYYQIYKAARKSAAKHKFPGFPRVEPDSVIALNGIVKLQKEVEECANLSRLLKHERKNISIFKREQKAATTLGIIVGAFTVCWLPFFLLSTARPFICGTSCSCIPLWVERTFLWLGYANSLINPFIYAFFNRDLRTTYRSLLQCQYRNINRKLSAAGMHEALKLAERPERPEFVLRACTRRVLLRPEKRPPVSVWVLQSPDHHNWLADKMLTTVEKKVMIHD
Sequence of 5-hydroxytryptamine receptor 2A (P28223 whole entry): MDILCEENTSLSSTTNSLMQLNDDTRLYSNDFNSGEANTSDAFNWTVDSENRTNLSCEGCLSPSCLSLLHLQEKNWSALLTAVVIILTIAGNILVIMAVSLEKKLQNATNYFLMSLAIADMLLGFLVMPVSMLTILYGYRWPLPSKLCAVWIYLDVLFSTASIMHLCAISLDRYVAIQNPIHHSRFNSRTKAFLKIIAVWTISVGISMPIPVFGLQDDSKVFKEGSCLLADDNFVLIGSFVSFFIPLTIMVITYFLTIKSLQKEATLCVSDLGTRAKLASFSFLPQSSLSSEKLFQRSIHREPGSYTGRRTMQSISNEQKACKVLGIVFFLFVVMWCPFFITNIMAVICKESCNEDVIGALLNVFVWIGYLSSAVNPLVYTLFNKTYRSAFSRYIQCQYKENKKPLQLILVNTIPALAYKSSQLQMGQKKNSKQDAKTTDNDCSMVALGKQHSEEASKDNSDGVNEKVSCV

On to `Cc1cccc(S(=O)(=O)N[C@H]2CCN(CCCc3noc4cc(F)ccc34)C2)c1`, for which the Ki in series [1] was 12.9 nM; in series [2] it was 1.02 nM. In turn, `O=C1CCc2ccc(OCCCCN3CCN(c4cccc(Cl)c4Cl)CC3)cc2N1` [ARIPIPRAZOLE] came in with an MED in series [3] greater than 2.5 mg/kg. In series [4], `CN(C)CCCN1c2ccccc2Sc2ccc(Cl)cc21` displayed a pKb of 8.84. In series [1], `Cc1cccc(S(=O)(=O)N[C@@H]2CCN(CCCc3noc4cc(F)ccc34)C2)c1` gave a Ki of 1.7 nM. Consider `CC1CCN(CC[C@H]2CCCN2S(=O)(=O)c2cccc(O)c2)CC1`, for which, in series [5], the pKb came out at 9.55. Consider `COC(=O)[C@H]1[C@H]2C[C@H]3c4[nH]c5ccccc5c4CCN3C[C@H]2CC[C@@H]1O` [RAUWOLSCINE], for which, in series [6], the pKb is 8.62. For the molecule `O=S(=O)(N[C@@H]1CCN(CCCc2noc3cc(F)ccc23)C1)c1ccc(F)c(Cl)c1`, the results for the Ki in [1] and in [2] were 1.45 nM and 5.25 nM, respectively. As for `O=S(=O)(N[C@H]1CCN(CCCc2noc3cc(F)ccc23)C1)c1ccc(F)c(Cl)c1`, the results for the Ki in series [1] and in series [2] were 25.7 nM and 6.46 nM, respectively. Consider `OCCOCCN1CCN(C2=Nc3ccccc3Sc3ccccc32)CC1` [QUETIAPINE], for which the minimal effective dose in [7] is 10 mg/kg; in [8], 10 mg/kg; in series [10], 5 mg/kg. Moreover, the MED in series [9] was 30 mg/kg; in [11], 10 mg/kg; in [12] it was 10 mg/kg.

Take `Cn1ccc2cc3c(cc21)CCN3C(=O)Nc1cccnc1`: the pKb in [13] was 8.39.

For orientation: Ki means a measure of affinity in units of concentration, obtained from inhibition or displacement. Lower therefore signals a stronger hold on the target. A word on the pKb: it is −log10 of the Kb, conventionally taken in molar units.
